How the values were obtained:
Arc, cFos, and Zif268 = test: Quantitative PCR of immediate-early genes linked to neuronal plasticity; type: cell-based, mouse; details: 1 μM and 10 μM, 1 h and 2 h treatment
Protocol: The effect of Compound A or derivative thereof on the mRNA expression of genes related to plasticity (Arc, cFos, and Zif268) was determined as described. Cox (cytochrome oxidase) was used to evaluate if the derivative changes expression of mitochondrial genes.
Determination of gene expression was performed as previously described [Yang J, et al, Lactate promotes plasticity gene expression by potentiating NMDA signalling in neurons. Proc Natl Acad Sci USA. 2014. 111(33):12228-33]. Total RNA was isolated from cultured cells using Nucleospin RNA II kit (Macherey-Nagel) according to the manufacturer's instructions. The first strand of cDNA was synthesized from 100 ng of total RNA (60 min at 37° C. followed by 5 min at 95° C.) using a high-capacity RNA to cDNA reverse transcription system (Applied Biosystems). One-twentieth of the resulting cDNA was amplified by quantitative PCR (qPCR) with an ABI Prism 7900 system (Applied Biosystems). The PCR mix was composed of 6 ng of cDNA, 300 nM of forward and reverse primers in 10 μL of ix SYBR-Green PCR MasterMix (Applied Biosystems). Primer sequences were designed using Primer Express 3.0 software (Applied Biosystems) and oligonucleotides were synthesized by Microsynth.

[1] = system: primary cultures of cerebral cortical astrocytes; test: Glucose uptake ([3H]2-deoxyglucose) in astrocyte cultures; type: cell-based, mouse; details: 10 μM, 30 minutes after application
Protocol: Primary cultures of cerebral cortical astrocytes were prepared from Swiss albino newborn mice (1-2 days old) as described [Pellerin L, Magistretti P J. Glutamate uptake into astrocytes stimulates aerobic glycolysis: a mechanism coupling neuronal activity to glucose utilization. Proc Natl Acad Sci USA. 1994 Oct. 25; 91(22):10625-9]. This procedure yields cultures that are >95% immunoreactive for glial fibrillary acidic protein.
Astrocytes are emerging as having significant roles in several homeostatic processes in the brain [Zuchero J B, Barres B A. Glia in mammalian development and disease. Development 2015 142: 3805-3809]. To evaluate the potential effects of Compound A (10 μM) on astrocyte metabolism, the uptake of glucose and lactate release were measured 30 minutes after application of compounds to the culture (FIGS. 2 and 3).
Glucose utilization by cells was measured using radioactive 2-deoxyglucose, a well-established marker of glucose utilization not metabolized within cells. […]
In order to quantify glucose utilization by cells in the presence of Compound A/SND118, radioactive 2-deoxyglucose, a well-established marker of glucose utilization not metabolized within cells, was used. The radioactivity count is thus proportional to the transport and phosphorylation of glucose that enters into the cells. […]

[2] = system: organotypic hippocampal brain slices with IAA lesion; test: Organotypic brain slices, iodoacetic acid injury: cell survival (MTT); type: cell-based, mouse; details: SND118 10 and 30 μM; SND124 30 μM; 7,8 DHF 10 μm; IAA 250 μM for 110 min
Protocol: Preparation of the organotypic brain slices were performed by decapitation of the P9/P10 mouse pups, removing skin and skull and immersing brains in slicing medium (Opti-MEM 1, […]). Brains were hemisected and hippocampi were isolated. Hippocampi were placed on the cutting disc of a McIlwain Tissue Chopper. […] hippocampal slices were chopped transversely. A number of 4 slices per hippocampus were placed on porous (0.4 μM) transparent membrane inserts (Millipore) and incubated for 1 h on ice in HBSS containing 10 mM glucose. Afterwards inserts were transferred to fresh 24-well plates containing 250-300 μl culture medium (50% MEM/EBSS, 25% horse serum, 25% CMF-HBSS, 25 mM glucose, 0.5% pen/strep). Slices were maintained at 37° C. and 5% CO2.
On DV15, brain slices were pretreated with SND derivatives test compounds and the reference 7,8DHF at various concentrations (between […]) for 30 min, followed by the addition of iodoacetic acid (IAA) at 250 μM for 110 min, when cell survival, MMP and toxicity were measured.
Cell survival was measured by the MTT assay. For the determination of mitochondrial membrane potential, treated organotypic brain slices were loaded with the mitochondrial fluorescent dye, tetramethylrhodamine methyl ester (TMRM) at a final concentration of 100 nM in PBS and incubated for 45 min at 37° C. The TMRM containing solution was aspirated and slices were transferred into new well plates containing the appropriate amount of PBS. Fluorescence was measured with a plate-reader (Cytation 5) using wavelengths of excitation and emission of 548 and 574 nm, respectively (area scan). Values were calculated as percent of control values (vehicle control). Toxicity of the treatment was measured by LDH. No toxicity was observed.

[3] = Metabolic stability in human plasma; type: in vitro ADME; details: 1 μM
Protocol: The compounds were incubated with plasma, and the collected samples were analyzed by UPLC/HR-MS to measure stability of the compounds.
Sample type: plasma; Species: CD1-mouse (male), human (mixed gender); Time points: 0, 20, 40, 60, 120 min;
Spiking solvent: 50% DMSO ( 1/100 to incubation); Quenching solvent: 2-fold volume of 100% ACN; Control: propanthelin bromide (human, mouse)
The study compounds were incubated with plasma as specified above. The collected samples were stored at −20 C until thawed at room temperature, centrifuged and analyzed using UPLC/PDA with high resolution mass spectrometry (QE-Orbitrap-MS on DDI mode) to monitor substrate depletion and metabolite formation. The analytical method was optimised by using the parent compounds for optimum chromatographic properties (peak shape and retention) and mass spectrometric ionisation. Disappearance was based on relative LC/MS peak areas (0 min=100%) and will be used to calculate half-lives.

O=c1cc(-c2ccc(CCCC[P+](c3ccccc3)(c3ccccc3)c3ccccc3)cc2)oc2c(O)c(O)ccc12 [SND118, 4-[4-(7,8-dihydroxy-4-oxo-chromen-2-yl)phenyl]butyltriphenylphosphonium bromide]
mRNA expression of genes related to plasticity (Arc, cFos, and Zif268) (Arc, cFos, and Zif268): increased
uptake of deoxyglucose (glucose uptake) [1]: increased the uptake of deoxyglucose in the same range as glutamate control
cell survival upon IAA lesion (MTT) [2]: statistically increase cell survival
T1/2 plasma Human [3]: 13.2 h

From patent US20220411448A1, “CHROMENE-4-ONE DERIVATIVES AS BRAIN-DERIVED NEUROTROPHIC FACTOR (BDNF) MIMETICS” (FLORATEK PHARMA AG, priority 2019, published 2022)
